Measured values published in US20030083469A1, “Allosteric control of nuclear hormone receptors” (The Salk Institute for Biological Studies, priority 1995, published 2003).

Experiments:
[1] = molecular target: T1, GAL-T3R + RXR LBD (Homo sapiens, UniProt P19793); assay: Transient transfection of GAL-T3R chimera with RXR LBD; format: cell-based; conditions: 100 nM LG69
T1 construct: or the human RXRα LBD (Glu 203 -Thr 462); expressed in transfected cells; host or cells: CV-1
T1 sequence (P19793 203-462): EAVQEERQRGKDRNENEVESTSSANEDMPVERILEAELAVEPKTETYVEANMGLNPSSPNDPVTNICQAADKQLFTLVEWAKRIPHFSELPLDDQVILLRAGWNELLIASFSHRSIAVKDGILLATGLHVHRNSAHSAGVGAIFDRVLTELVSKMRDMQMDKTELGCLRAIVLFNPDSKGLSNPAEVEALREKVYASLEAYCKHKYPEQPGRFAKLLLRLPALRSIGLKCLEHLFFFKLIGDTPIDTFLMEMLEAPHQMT
T1 sequence (P10828 178-461 partner): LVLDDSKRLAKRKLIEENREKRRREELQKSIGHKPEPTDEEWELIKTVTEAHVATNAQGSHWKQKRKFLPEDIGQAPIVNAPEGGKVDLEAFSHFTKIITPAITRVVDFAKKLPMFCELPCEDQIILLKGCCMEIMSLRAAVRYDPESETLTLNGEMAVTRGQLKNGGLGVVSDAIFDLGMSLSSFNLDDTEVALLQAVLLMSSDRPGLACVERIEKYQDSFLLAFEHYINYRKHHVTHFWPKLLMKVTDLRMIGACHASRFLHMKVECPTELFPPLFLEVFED
Description: CV-1 cells were grown in Dulbecco's Modified Eagle's medium supplemented with 10% resin-charcoal stripped (Samuels et al., Endocrinology 105:80-85 (1979)) fetal bovine serum, 50 U/ml penicillin G and 50 μg/ml streptomycin sulfate (DMEM-FBS) at 37° C. in 5% CO2. One day prior to transfection, cells were plated to 50-80% confluence using phenol-red free DMEM-FBS. Cells were transfected by lipofection using N-{2-(2,3)-dioleoyloxy)propyl-N,N,N-trimethyl ammonium methyl sulfate} according to the manufacturer's instructions (DOTAP, Boehringer Mannheim). […] Cells were harvested and assayed for luciferase and β-galactosidase activity. All points were performed in triplicate in each experiment and varied by less than 10%. Each experiment was repeated three or more times with similar results.
Since RXR serves as a silent partner in the T3R and RAR pathways, it was next investigated whether RXR could serve as an active component in other complexes. To search for such complexes, the LBD of a number of nuclear receptors were fused to the GAL4 DBD, and tested to determine whether the RXR LBD could confer LG69 responsiveness upon these GAL-LBD chimeras. […] Normalized luciferase activity was determined and plotted as fold-activation relative to untreated cells.

[2] = molecular target: T2, RXR (Homo sapiens, UniProt P19793); assay: Transient transfection of RXR on CRBPII TK-LUC reporter; format: cell-based; conditions: limiting RXR (20 ng/10^5 cells); LG69
T2 construct: transient transfection analysis of full-length Nurrl and/or RXR; expressed in transfected cells; host or cells: CV-1
T2 sequence (P19793 1-462): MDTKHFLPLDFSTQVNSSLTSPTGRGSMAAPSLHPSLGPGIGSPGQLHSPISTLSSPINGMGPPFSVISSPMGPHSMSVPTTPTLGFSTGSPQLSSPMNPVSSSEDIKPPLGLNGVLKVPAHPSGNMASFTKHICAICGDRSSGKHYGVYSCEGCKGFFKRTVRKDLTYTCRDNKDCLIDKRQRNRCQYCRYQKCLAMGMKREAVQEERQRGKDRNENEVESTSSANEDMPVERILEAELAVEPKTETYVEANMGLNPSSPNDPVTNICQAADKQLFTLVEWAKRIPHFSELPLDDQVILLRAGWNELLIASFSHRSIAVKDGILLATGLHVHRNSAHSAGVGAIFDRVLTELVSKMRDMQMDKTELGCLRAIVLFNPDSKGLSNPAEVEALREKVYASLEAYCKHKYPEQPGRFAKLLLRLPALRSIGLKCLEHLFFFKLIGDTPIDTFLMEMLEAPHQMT
Description: CV-1 cells were grown in Dulbecco's Modified Eagle's medium supplemented with 10% resin-charcoal stripped (Samuels et al., Endocrinology 105:80-85 (1979)) fetal bovine serum, 50 U/ml penicillin G and 50 μg/ml streptomycin sulfate (DMEM-FBS) at 37° C. in 5% CO2. One day prior to transfection, cells were plated to 50-80% confluence using phenol-red free DMEM-FBS. Cells were transfected by lipofection using N-{2-(2,3)-dioleoyloxy)propyl-N,N,N-trimethyl ammonium methyl sulfate} according to the manufacturer's instructions (DOTAP, Boehringer Mannheim). […]. All points were performed in triplicate in each experiment and varied by less than 10%. Each experiment was repeated three or more times with similar results.
Using sub-optimal amounts of RXR-expression vector, the CRBPII reporter was compared with a 3-copy NBRE reporter as follows. Cells were transfected as described with respect to FIG. 7B, but with a 5-fold lower amount of CMX-hRXRα (20 ng/10^5 cells). CRBPII TK-LUC (300 ng/10^5 cells) was used where indicated.

[3] = molecular target: T3, RXR-T3R heterodimer (Homo sapiens, UniProt P19793); assay: Ligand binding assay with RXR-T3R heterodimer; parameters: species or system human GST-hRXRα, chicken T3Rα1
T3 construct: made in house
T3 sequence (P19793 1-462): T2 sequence (P19793 1-462)
T3 sequence (P04625 1-408 partner): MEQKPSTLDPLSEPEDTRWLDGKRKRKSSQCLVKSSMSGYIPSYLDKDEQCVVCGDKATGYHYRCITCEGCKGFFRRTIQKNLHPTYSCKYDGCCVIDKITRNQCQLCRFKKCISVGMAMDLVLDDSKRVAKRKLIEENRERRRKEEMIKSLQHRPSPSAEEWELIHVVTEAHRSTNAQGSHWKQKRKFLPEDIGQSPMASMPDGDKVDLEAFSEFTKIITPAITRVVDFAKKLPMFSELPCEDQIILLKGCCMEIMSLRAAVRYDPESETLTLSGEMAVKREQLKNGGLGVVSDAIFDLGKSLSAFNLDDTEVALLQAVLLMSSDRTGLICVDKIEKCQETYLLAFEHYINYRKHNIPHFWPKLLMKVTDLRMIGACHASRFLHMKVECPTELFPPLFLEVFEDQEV

CC=C(c1ccc(C(=O)O)cc1)c1cc2c(cc1C)C(C)(C)CCC2(C)C [LG69, 4-{1-(3,5,5,8,8-pentamethyl-5,6,7,8-tetrahydro-2-napthalenyl)-1-propenyl}benzoic acid]
LG69 responsiveness [1]: not seen | activation of the CRBPII reporter [2]: minimal activation | change in [3H] LG69 binding ([3]; T3R with 1 μM T3 added): strongly diminished | change in [3H] LG69 binding ([3]; unliganded T3R): modest reduction
